Results as given in ChEMBL document CHEMBL3351663, “Discovery of acylurea isosteres of 2-acylaminothiadiazole in the azaxanthene series of glucocorticoid receptor agonists” (Bioorg Med Chem Lett, 2014).

Assays:
Androgen receptor = target: T1, Androgen receptor (Homo sapiens, UniProt P10275); assay: Binding affinity to androgen receptor (unknown origin)
T1 sequence (P10275 whole entry): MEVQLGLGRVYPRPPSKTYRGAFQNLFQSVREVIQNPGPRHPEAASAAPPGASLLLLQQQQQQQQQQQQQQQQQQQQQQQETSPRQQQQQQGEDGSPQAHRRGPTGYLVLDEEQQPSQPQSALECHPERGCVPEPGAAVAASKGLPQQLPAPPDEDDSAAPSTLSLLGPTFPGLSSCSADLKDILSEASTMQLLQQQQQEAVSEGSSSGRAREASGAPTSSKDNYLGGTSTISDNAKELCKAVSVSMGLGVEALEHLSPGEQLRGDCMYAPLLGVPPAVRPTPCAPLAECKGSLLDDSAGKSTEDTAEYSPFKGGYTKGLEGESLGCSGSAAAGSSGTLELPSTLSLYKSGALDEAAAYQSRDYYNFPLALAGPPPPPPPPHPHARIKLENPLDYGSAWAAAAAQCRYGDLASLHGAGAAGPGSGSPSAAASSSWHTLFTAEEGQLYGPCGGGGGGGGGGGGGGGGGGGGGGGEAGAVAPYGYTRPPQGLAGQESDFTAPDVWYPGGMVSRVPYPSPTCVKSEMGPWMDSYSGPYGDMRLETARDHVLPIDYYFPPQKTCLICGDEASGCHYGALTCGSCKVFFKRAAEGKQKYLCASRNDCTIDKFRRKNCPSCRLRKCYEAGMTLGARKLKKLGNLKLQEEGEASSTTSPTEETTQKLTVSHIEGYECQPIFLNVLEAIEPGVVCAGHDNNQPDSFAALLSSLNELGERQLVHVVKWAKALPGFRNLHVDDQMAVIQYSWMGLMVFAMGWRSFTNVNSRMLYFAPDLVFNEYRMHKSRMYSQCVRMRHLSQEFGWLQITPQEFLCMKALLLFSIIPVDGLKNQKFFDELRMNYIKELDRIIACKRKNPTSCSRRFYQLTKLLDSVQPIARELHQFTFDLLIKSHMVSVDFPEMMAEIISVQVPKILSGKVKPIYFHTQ

Cytochrome P450 3A4 = Cytochrome P450 3A4 (Homo sapiens, UniProt P08684); assay: Inhibition of CYP3A4 (unknown origin); assay type: ADME
Cytochrome P450 3A4, sequence (P08684 whole entry): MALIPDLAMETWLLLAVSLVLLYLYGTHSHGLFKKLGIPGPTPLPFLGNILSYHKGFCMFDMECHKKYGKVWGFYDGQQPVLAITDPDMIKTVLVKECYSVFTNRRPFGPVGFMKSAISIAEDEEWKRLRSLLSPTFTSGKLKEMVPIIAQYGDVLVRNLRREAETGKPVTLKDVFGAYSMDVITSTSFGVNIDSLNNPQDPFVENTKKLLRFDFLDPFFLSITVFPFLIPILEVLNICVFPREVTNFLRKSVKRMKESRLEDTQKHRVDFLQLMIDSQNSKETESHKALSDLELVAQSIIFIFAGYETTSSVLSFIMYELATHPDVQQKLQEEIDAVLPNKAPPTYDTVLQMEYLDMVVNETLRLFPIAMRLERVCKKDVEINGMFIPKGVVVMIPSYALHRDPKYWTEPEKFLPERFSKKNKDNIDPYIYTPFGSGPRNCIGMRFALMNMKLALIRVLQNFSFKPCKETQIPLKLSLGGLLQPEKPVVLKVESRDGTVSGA

Cytochrome P450 2C19 = Cytochrome P450 2C19 (Homo sapiens, UniProt P33261); assay: Inhibition of CYP2C19 (unknown origin); assay type: ADME
Cytochrome P450 2C19, sequence (P33261 whole entry): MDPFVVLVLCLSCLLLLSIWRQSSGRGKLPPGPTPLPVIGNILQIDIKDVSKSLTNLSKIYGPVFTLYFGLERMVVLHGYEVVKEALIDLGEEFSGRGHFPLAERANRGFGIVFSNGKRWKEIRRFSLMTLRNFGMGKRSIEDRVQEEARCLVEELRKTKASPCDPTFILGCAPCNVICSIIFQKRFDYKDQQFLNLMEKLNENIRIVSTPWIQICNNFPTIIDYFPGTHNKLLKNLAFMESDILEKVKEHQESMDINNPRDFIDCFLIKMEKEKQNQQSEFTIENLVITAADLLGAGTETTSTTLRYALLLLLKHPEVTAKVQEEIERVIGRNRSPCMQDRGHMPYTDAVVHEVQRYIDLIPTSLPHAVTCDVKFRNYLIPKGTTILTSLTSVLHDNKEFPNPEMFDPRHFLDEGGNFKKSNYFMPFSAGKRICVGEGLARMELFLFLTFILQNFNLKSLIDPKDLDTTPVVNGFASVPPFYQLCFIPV

Glucocorticoid receptor [1] = target: T2, Glucocorticoid receptor (Homo sapiens, UniProt P04150); assay: Agonist activity at glucocorticoid receptor in human A549 cells assessed as AP-1 transrepression by luciferase reporter gene assay; assay type: cell-based
T2 sequence (P04150 whole entry): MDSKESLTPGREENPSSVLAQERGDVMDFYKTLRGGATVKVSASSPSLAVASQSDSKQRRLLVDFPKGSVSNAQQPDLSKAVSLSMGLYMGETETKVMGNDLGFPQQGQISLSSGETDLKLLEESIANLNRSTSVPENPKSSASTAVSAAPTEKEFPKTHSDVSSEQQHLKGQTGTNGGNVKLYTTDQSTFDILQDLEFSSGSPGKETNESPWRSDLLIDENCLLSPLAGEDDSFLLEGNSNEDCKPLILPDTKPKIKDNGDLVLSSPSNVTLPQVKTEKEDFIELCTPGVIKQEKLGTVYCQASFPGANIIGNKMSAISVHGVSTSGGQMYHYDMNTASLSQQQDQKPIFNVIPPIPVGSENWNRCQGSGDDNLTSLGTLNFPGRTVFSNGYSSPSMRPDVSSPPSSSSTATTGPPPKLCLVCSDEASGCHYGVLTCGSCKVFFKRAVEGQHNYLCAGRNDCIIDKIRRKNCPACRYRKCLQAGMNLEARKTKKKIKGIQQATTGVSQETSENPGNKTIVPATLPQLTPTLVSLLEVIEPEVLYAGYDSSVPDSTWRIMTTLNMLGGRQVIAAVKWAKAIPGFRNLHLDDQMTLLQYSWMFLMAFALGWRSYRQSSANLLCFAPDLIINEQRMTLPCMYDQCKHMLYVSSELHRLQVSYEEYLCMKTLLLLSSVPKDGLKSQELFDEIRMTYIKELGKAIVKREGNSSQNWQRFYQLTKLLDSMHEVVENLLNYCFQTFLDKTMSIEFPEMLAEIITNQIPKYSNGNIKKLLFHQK

Cytochrome P450 2C9 = Cytochrome P450 2C9 (Homo sapiens, UniProt P11712); assay: Inhibition of CYP2C9 (unknown origin); assay type: ADME
Cytochrome P450 2C9, sequence (P11712 whole entry): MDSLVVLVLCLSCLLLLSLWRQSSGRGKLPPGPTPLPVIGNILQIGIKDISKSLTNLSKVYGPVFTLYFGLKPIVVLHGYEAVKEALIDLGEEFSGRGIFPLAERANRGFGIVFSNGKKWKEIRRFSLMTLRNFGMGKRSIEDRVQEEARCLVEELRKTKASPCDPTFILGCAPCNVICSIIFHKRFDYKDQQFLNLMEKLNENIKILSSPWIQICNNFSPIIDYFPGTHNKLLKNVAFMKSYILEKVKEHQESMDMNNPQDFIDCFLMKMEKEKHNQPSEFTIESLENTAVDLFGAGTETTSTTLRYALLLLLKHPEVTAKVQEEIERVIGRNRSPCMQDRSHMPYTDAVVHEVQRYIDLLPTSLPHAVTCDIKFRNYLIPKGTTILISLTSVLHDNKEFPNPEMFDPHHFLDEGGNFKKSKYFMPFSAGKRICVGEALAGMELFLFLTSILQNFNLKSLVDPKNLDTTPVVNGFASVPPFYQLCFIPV

Estrogen receptor = target: T3, Estrogen receptor (Homo sapiens, UniProt P03372); assay: Binding affinity to estrogen receptor-alpha (unknown origin)
T3 sequence (P03372 whole entry): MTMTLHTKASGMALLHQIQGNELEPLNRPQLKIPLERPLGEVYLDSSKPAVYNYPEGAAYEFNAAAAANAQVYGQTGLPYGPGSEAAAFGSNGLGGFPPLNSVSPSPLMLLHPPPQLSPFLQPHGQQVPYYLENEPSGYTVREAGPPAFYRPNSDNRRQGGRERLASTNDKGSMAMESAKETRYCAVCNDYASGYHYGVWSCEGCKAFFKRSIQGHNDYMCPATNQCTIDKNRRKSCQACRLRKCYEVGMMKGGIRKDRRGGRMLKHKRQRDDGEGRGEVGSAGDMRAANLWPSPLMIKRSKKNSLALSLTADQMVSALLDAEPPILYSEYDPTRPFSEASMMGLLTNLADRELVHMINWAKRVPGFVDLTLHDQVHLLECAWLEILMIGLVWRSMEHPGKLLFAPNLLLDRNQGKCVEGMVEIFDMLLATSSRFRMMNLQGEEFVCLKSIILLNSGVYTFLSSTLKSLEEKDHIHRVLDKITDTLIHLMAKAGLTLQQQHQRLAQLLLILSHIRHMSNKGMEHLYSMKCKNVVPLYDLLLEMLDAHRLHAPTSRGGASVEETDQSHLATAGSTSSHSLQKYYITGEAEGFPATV

Glucocorticoid receptor [2] = target: T2, Glucocorticoid receptor; assay: Agonist activity at glucocorticoid receptor in human HeLa cells assessed as NP-1 transactivation by luciferase reporter gene assay; assay type: cell-based
[3] = Half life in human liver microsomes

With `CC(C)(C(=O)NC(N)=O)[C@@H]1c2ccc(-c3ccc(C(=O)N4CCOCC4)cc3)nc2Oc2c(F)cccc21` the Ki (Androgen receptor) was greater than 50000 nM, the IC50 (Cytochrome P450 3A4) was greater than 40000 nM and the IC50 (Cytochrome P450 2C19) was 11000 nM. The EC50 (Glucocorticoid receptor [1]) was 2.1 nM, the IC50 (Cytochrome P450 2C9) was 14000 nM and the Ki (Estrogen receptor) was greater than 75000 nM. The EC50 (Glucocorticoid receptor [2]) was 5.5 nM and the half-life ([3]; microsomes) was 41 min.

Work on `CC(C)(C(=O)Nc1nncs1)[C@@H]1c2ccc(-c3ccc(C(=O)N4CCOCC4)cc3)nc2Oc2c(F)cccc21` yielded a Ki (Androgen receptor) greater than 50000 nM, an IC50 (Cytochrome P450 3A4) of 300 nM and an IC50 (Cytochrome P450 2C19) of 1300 nM. The EC50 (Glucocorticoid receptor [1]) was 2.1 nM, the IC50 (Cytochrome P450 2C9) was 1000 nM and the Ki (Estrogen receptor) was greater than 75000 nM. The EC50 (Glucocorticoid receptor [2]) was 10.8 nM and the half-life ([3]; liver microsomes) was 9.1 min.
